Results: patent US9833497B2, “Human originated EGF domain proteins and use of the same” (CHENGDU SOURCEBIO LIMITED-LIABILITY COMPANY, priority 2013, dated 2017)

system: E. coli DH5α; experiment: Antibacterial activity: MIC and growth curve against E. coli DH5α in 96-well plate; format: cell-based; conditions: minimal inhibitory concentration against E. coli DH5α; 96-well plate, 5×10^5 CFU/mL, 37° C., judged after 8 h
Summary of the method: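 MIC taken as lowest protein level with no bacterial growth, tracked by A600 every 30 min during 37 °C, 175 rpm culture. Two-fold protein series 50-12.5 μg/mL final, triplicate wells, against 5×10^5 CFU/mL of LB-washed mid-log cells.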

| Substance | MIC [µg/mL] |
| --- | --- |
| PRT517 (CQCFGHAESCDDVTGECLNCKDHTGGPYCDKCLPGFYGEPTKGTSEDCQP; listed as Homo sapiens) | 25 |
| PRT1145 (KINDCTSIPCMNEGFCQKSAHGFTCICPRGYTGAYCE; listed as Homo sapiens) | 12.5 |
| PRT784 (FGKNCAGICTCTNNGTCNPIDRSCQCYPGWIGSDCS; listed as Homo sapiens) | 50 |

system: E. coli BL21; experiment: MIC against Gram-negative bacteria: E. coli BL21; format: cell-based; conditions: 96-well plate, 5×10^5 CFU/mL, 37° C., 10 h
Summary of the method: (§1)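 Read-out is absence of bacterial growth, with MIC set at the lowest recombinant protein concentration achieving it. Bacteria, pre-grown in LB to McFarland 0.5 and resuspended, were exposed at 5×10^5 CFU/mL to two-fold diluted human EGF domain proteins in triplicate at 37° C, 175 rpm.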

| Substance | MIC against E. coli BL21 [µg/mL] |
| --- | --- |
| PRT517 (CQCFGHAESCDDVTGECLNCKDHTGGPYCDKCLPGFYGEPTKGTSEDCQP; listed as Homo sapiens) | 12.5 |

same assay, conditions: 10 h cultivation at 37° C., 5×10^5 CFU/mL, two-fold serial dilution

| Substance | MIC E. coli BL21 [µg/mL] |
| --- | --- |
| PRT1145 (KINDCTSIPCMNEGFCQKSAHGFTCICPRGYTGAYCE; listed as Homo sapiens) | 25 |

same assay, conditions: E. coli BL21; 10 h cultivation at 37° C.; 5×10^5 CFU/mL

| Substance | MIC (μg/mL) E. coli BL21 [µg/mL] |
| --- | --- |
| PRT784 (FGKNCAGICTCTNNGTCNPIDRSCQCYPGWIGSDCS; listed as Homo sapiens) | 25 |

system: Pseudomonas aeruginosa; experiment: MIC against Gram-negative bacteria: Pseudomonas aeruginosa; format: cell-based; conditions: 96-well plate, 5×10^5 CFU/mL, 37° C., 10 h
Summary of the method: as §1

| Substance | MIC against P. aeruginosa [µg/mL] |
| --- | --- |
| PRT517 (CQCFGHAESCDDVTGECLNCKDHTGGPYCDKCLPGFYGEPTKGTSEDCQP; listed as Homo sapiens) | 25 |

same assay, conditions: 10 h cultivation at 37° C., 5×10^5 CFU/mL, two-fold serial dilution

| Substance | MIC P. aeruginosa [µg/mL] |
| --- | --- |
| PRT1145 (KINDCTSIPCMNEGFCQKSAHGFTCICPRGYTGAYCE; listed as Homo sapiens) | 12.5 |

same assay, conditions: P. aeruginosa; 10 h cultivation at 37° C.; 5×10^5 CFU/mL

| Substance | MIC (μg/mL) P. aeruginosa [µg/mL] |
| --- | --- |
| PRT784 (FGKNCAGICTCTNNGTCNPIDRSCQCYPGWIGSDCS; listed as Homo sapiens) | 12.5 |

system: Klebsiella pneumonia; experiment: MIC against Gram-negative bacteria: Klebsiella pneumonia; format: cell-based; conditions: 96-well plate, 5×10^5 CFU/mL, 37° C., 10 h
Summary of the method: as §1

| Substance | MIC against K. pneumonia [µg/mL] |
| --- | --- |
| PRT517 (CQCFGHAESCDDVTGECLNCKDHTGGPYCDKCLPGFYGEPTKGTSEDCQP; listed as Homo sapiens) | 50 |

same assay, conditions: 10 h cultivation at 37° C., 5×10^5 CFU/mL, two-fold serial dilution

| Substance | MIC K. pneumonia [µg/mL] |
| --- | --- |
| PRT1145 (KINDCTSIPCMNEGFCQKSAHGFTCICPRGYTGAYCE; listed as Homo sapiens) | 12.5 |

same assay, conditions: K. pneumonia; 10 h cultivation at 37° C.; 5×10^5 CFU/mL

| Substance | MIC (μg/mL) K. pneumonia [µg/mL] |
| --- | --- |
| PRT784 (FGKNCAGICTCTNNGTCNPIDRSCQCYPGWIGSDCS; listed as Homo sapiens) | 50 |

system: Enterobacter cloacae; experiment: MIC against Gram-negative bacteria: Enterobacter cloacae; format: cell-based; conditions: 96-well plate, 5×10^5 CFU/mL, 37° C., 10 h
Summary of the method: as §1

| Substance | MIC against E. cloacae [µg/mL] |
| --- | --- |
| PRT517 (CQCFGHAESCDDVTGECLNCKDHTGGPYCDKCLPGFYGEPTKGTSEDCQP; listed as Homo sapiens) | 25 |

same assay, conditions: 10 h cultivation at 37° C., 5×10^5 CFU/mL, two-fold serial dilution

| Substance | MIC E. cloacae [µg/mL] |
| --- | --- |
| PRT1145 (KINDCTSIPCMNEGFCQKSAHGFTCICPRGYTGAYCE; listed as Homo sapiens) | 12.5 |

same assay, conditions: E. cloacae; 10 h cultivation at 37° C.; 5×10^5 CFU/mL

| Substance | MIC (μg/mL) E. cloacae [µg/mL] |
| --- | --- |
| PRT784 (FGKNCAGICTCTNNGTCNPIDRSCQCYPGWIGSDCS; listed as Homo sapiens) | 12.5 |

system: Aeromonas hydrophila; experiment: MIC against Gram-negative bacteria: Aeromonas hydrophila; format: cell-based; conditions: 96-well plate, 5×10^5 CFU/mL, 37° C., 10 h
Summary of the method: as §1

| Substance | MIC against A. hydrophila [µg/mL] |
| --- | --- |
| PRT517 (CQCFGHAESCDDVTGECLNCKDHTGGPYCDKCLPGFYGEPTKGTSEDCQP; listed as Homo sapiens) | 12.5 |

same assay, conditions: 10 h cultivation at 37° C., 5×10^5 CFU/mL, two-fold serial dilution

| Substance | MIC A. hydrophila [µg/mL] |
| --- | --- |
| PRT1145 (KINDCTSIPCMNEGFCQKSAHGFTCICPRGYTGAYCE; listed as Homo sapiens) | 12.5 |

same assay, conditions: A. hydrophila; 10 h cultivation at 37° C.; 5×10^5 CFU/mL

| Substance | MIC (μg/mL) A. hydrophila [µg/mL] |
| --- | --- |
| PRT784 (FGKNCAGICTCTNNGTCNPIDRSCQCYPGWIGSDCS; listed as Homo sapiens) | 50 |

system: Citrobacter diversus; experiment: MIC against Gram-negative bacteria: Citrobacter diversus; format: cell-based; conditions: 96-well plate, 5×10^5 CFU/mL, 37° C., 10 h
Summary of the method: as §1

| Substance | MIC against C. diversus [µg/mL] |
| --- | --- |
| PRT517 (CQCFGHAESCDDVTGECLNCKDHTGGPYCDKCLPGFYGEPTKGTSEDCQP; listed as Homo sapiens) | 25 |

same assay, conditions: 10 h cultivation at 37° C., 5×10^5 CFU/mL, two-fold serial dilution

| Substance | MIC C. diversus [µg/mL] |
| --- | --- |
| PRT1145 (KINDCTSIPCMNEGFCQKSAHGFTCICPRGYTGAYCE; listed as Homo sapiens) | 12.5 |

same assay, conditions: C. diversus; 10 h cultivation at 37° C.; 5×10^5 CFU/mL

| Substance | MIC (μg/mL) C. diversus [µg/mL] |
| --- | --- |
| PRT784 (FGKNCAGICTCTNNGTCNPIDRSCQCYPGWIGSDCS; listed as Homo sapiens) | 12.5 |

system: Moraxella catarrhalis; experiment: MIC against Gram-negative bacteria: Moraxella catarrhalis; format: cell-based; conditions: 96-well plate, 5×10^5 CFU/mL, 37° C., 10 h
Summary of the method: as §1

| Substance | MIC against M. catarrhalis [µg/mL] |
| --- | --- |
| PRT517 (CQCFGHAESCDDVTGECLNCKDHTGGPYCDKCLPGFYGEPTKGTSEDCQP; listed as Homo sapiens) | 50 |

same assay, conditions: 10 h cultivation at 37° C., 5×10^5 CFU/mL, two-fold serial dilution

| Substance | MIC M. catarrhalis [µg/mL] |
| --- | --- |
| PRT1145 (KINDCTSIPCMNEGFCQKSAHGFTCICPRGYTGAYCE; listed as Homo sapiens) | 12.5 |

same assay, conditions: M. catarrhalis; 10 h cultivation at 37° C.; 5×10^5 CFU/mL

| Substance | MIC (μg/mL) M. catarrhalis [µg/mL] |
| --- | --- |
| PRT784 (FGKNCAGICTCTNNGTCNPIDRSCQCYPGWIGSDCS; listed as Homo sapiens) | 50 |

system: Proteus mirabilis; experiment: MIC against Gram-negative bacteria: Proteus mirabilis; format: cell-based; conditions: 96-well plate, 5×10^5 CFU/mL, 37° C., 10 h
Summary of the method: as §1

| Substance | MIC against P. mirabilis [µg/mL] |
| --- | --- |
| PRT517 (CQCFGHAESCDDVTGECLNCKDHTGGPYCDKCLPGFYGEPTKGTSEDCQP; listed as Homo sapiens) | 25 |

same assay, conditions: 10 h cultivation at 37° C., 5×10^5 CFU/mL, two-fold serial dilution

| Substance | MIC P. mirabilis [µg/mL] |
| --- | --- |
| PRT1145 (KINDCTSIPCMNEGFCQKSAHGFTCICPRGYTGAYCE; listed as Homo sapiens) | 50 |

same assay, conditions: P. mirabilis; 10 h cultivation at 37° C.; 5×10^5 CFU/mL

| Substance | MIC (μg/mL) P. mirabilis [µg/mL] |
| --- | --- |
| PRT784 (FGKNCAGICTCTNNGTCNPIDRSCQCYPGWIGSDCS; listed as Homo sapiens) | 12.5 |

system: Proteus vulgaris; experiment: MIC against Gram-negative bacteria: Proteus vulgaris; format: cell-based; conditions: 96-well plate, 5×10^5 CFU/mL, 37° C., 10 h
Summary of the method: as §1

| Substance | MIC against P. vulgaris [µg/mL] |
| --- | --- |
| PRT517 (CQCFGHAESCDDVTGECLNCKDHTGGPYCDKCLPGFYGEPTKGTSEDCQP; listed as Homo sapiens) | 12.5 |

same assay, conditions: 10 h cultivation at 37° C., 5×10^5 CFU/mL, two-fold serial dilution

| Substance | MIC P. vulgaris [µg/mL] |
| --- | --- |
| PRT1145 (KINDCTSIPCMNEGFCQKSAHGFTCICPRGYTGAYCE; listed as Homo sapiens) | 25 |

same assay, conditions: P. vulgaris; 10 h cultivation at 37° C.; 5×10^5 CFU/mL

| Substance | MIC (μg/mL) P. vulgaris [µg/mL] |
| --- | --- |
| PRT784 (FGKNCAGICTCTNNGTCNPIDRSCQCYPGWIGSDCS; listed as Homo sapiens) | 50 |

system: Serratia marcescens; experiment: MIC against Gram-negative bacteria: Serratia marcescens; format: cell-based; conditions: 96-well plate, 5×10^5 CFU/mL, 37° C., 10 h
Summary of the method: as §1

| Substance | MIC against S. marcescens [µg/mL] |
| --- | --- |
| PRT517 (CQCFGHAESCDDVTGECLNCKDHTGGPYCDKCLPGFYGEPTKGTSEDCQP; listed as Homo sapiens) | 25 |

same assay, conditions: 10 h cultivation at 37° C., 5×10^5 CFU/mL, two-fold serial dilution

| Substance | MIC S. marcescens [µg/mL] |
| --- | --- |
| PRT1145 (KINDCTSIPCMNEGFCQKSAHGFTCICPRGYTGAYCE; listed as Homo sapiens) | 12.5 |

same assay, conditions: S. marcescens; 10 h cultivation at 37° C.; 5×10^5 CFU/mL

| Substance | MIC (μg/mL) S. marcescens [µg/mL] |
| --- | --- |
| PRT784 (FGKNCAGICTCTNNGTCNPIDRSCQCYPGWIGSDCS; listed as Homo sapiens) | 12.5 |
